Data: patent publication US20100069325A1, “Pharmaceutical composition for treatment of chronic liver diseases and use thereof” (priority 2008, published 2010)

Tests used:
[1] = system: rats having DMN-induced liver fibrosis; assay: Comparison of therapeutic effect between composition and single component on rats having DMN-induced liver fibrosis (Example 5); type: in vivo, SD rats; conditions: DMN model; for ALT (activity of blood serum) / AST (activity of blood serum) / GGT (activity of blood serum) / Hyp (content in liver tissues) / Tbil (content of blood serum): gavage, two weeks of treatment, x ± s; for Degree of liver fibrosis S0 (number of rats) / Degree of liver fibrosis S1 (number of rats) / Degree of liver fibrosis S2 (number of rats) / Degree of liver fibrosis S3 (number of rats) / Degree of liver fibrosis S4 (number of rats): HE and Sirius red staining, S0-S4 staging; for Degree of liver fibrosis S0 (number of rats): stage S0; for Degree of liver fibrosis S1 (number of rats): stage S1; for Degree of liver fibrosis S2 (number of rats): stage S2; for Degree of liver fibrosis S3 (number of rats): stage S3; for Degree of liver fibrosis S4 (number of rats): stage S4
From the text: Modeling and grouping: 80 SD rats were randomly divided into a normal group (6) and modeling groups (74). The modeling method was the same as that in Example 1. Four weeks later, 4 rats from the modeling group died. The remaining […] rats were randomly divided into a model group, a Composition A group, groups having a single component of Composition A, a first control group of Fuzhenghuayu capsule, and a second control group of colchicines, each group 10 rats. The administered dose of colchicines was 0.1 mg/Kg, Fuzhenghuayu capsule 4.6 g/Kg. The Composition A group was administered Cordyceps sinensis polysaccharide 60 mg/Kg, Gypenoside 50 mg/Kg, and Amygdaloside 80 mg/Kg. The administered dose of the Gypenoside group was 200 mg/Kg, Amygdaloside 80 mg/Kg, and Cordyceps sinensis polysaccharide 60 mg/Kg. Each group was administered by gavage in a volume of 10 mL/Kg. The model group was administered the same volume of drinking water. After two weeks of treatment, the remaining 61 rats were anesthetized by intraperitoneal injection of 2% pentobarbital sodium. […] Liver tissue was also collected in centrifuge tubes (1.5 mL) for analyzing. Two liver tissues from a hepatic lobule was collected and immersed in a formalin solution for testing.
Observing index and method: the content of hydroxyproline (Hyp) in liver tissues (Jamall's method); liver function of blood serum; liver tissues were stained with HE and Sirius red respectively to determine the degree of liver fibrosis according to the S0-S4 staging criteria in literatures.
The obtained data was expressed as x±s and analysed statistically with software SPSS 12.0 for variance analysis and comparison between groups. The comparison of ranked data between groups was performed by Ridit analysis.

[2] = system: rats having CCl4-induced liver fibrosis; assay: Comparison of therapeutic effect between composition and single component on rats having CCl4-induced liver fibrosis (Example 6); type: in vivo, SD rats; conditions: CCl4 model; for ALT (activity of blood serum) / AST (activity of blood serum) / Alb (content of blood serum) / GGT (activity of blood serum) / Hyp (content in liver tissues) / Tbil (content of blood serum): SD rats, three weeks of treatment while modeling, x ± s
From the text: Modeling and grouping: 86 SD rats were randomly divided into a normal group (6) and modeling groups (80). The modeling method was the same as that in Example 2. Six weeks later, 2 rats from the modeling group died. The remaining 78 rats were randomly divided into a model group (12), a Composition A group (11), groups having a single component of Composition A (each group with 11 rats), a first control group of Fuzhenghuayu capsule (11), and a second control group of colchicine (11). The administered dose was the same as those in Example 5. After three weeks of treatment while modeling, the remaining […] rats were anesthetized by intraperitoneal injection of 2% pentobarbital sodium. […] Liver tissue was also collected in centrifuge tubes (1.5 mL) for analyzing. Two liver tissues from a hepatic lobule was collected and immersed in a formalin solution for testing.
Observing index and method: the same as those in Example 5.
The obtained data was expressed as x±s and analysed statistically with software SPSS 12.0 for variance analysis and comparison between groups.

| SMILES | ALT (activity of blood serum) ([1]; SD rats) | AST (activity of blood serum) ([1]; SD rats) | GGT (activity of blood serum) ([1]; SD rats) | Hyp (content in liver tissues) ([1]; SD rats) | Tbil (content of blood serum) ([1]; SD rats) | Degree of liver fibrosis S0 (number of rats) [1] | Degree of liver fibrosis S1 (number of rats) [1] | Degree of liver fibrosis S2 (number of rats) [1] | Degree of liver fibrosis S3 (number of rats) [1] | Degree of liver fibrosis S4 (number of rats) [1] | collagen fibers, Sirius red staining of liver tissues ([1]; compared with the model group, FIG. 1) | ALT (activity of blood serum) [2] | AST (activity of blood serum) [2] | Alb (content of blood serum) [2] | GGT (activity of blood serum) [2] | Hyp (content in liver tissues) [2] | Tbil (content of blood serum) [2] | collagen fibers, Sirius red staining of liver tissues ([2]; compared with the model group, FIG. 2) | effect on DMN-induced liver fibrosis (in words) ([1]; SD rats) |
| --- | --- | --- | --- | --- | --- | --- | --- | --- | --- | --- | --- | --- | --- | --- | --- | --- | --- | --- | --- |
| COc1cc2c(c(OC)c1OC)-c1ccc(OC)c(=O)cc1[C@@H](NC(C)=O)CC2 [Colchicine] | 47.55 ± 17.47 U · ml^−1 | 62.81 ± 13.04 U · ml^−1 | 31.30 ± 17.21 U · ml^−1 | 300 ± 47 μg · g^−1 liver weight | 0.86 ± 0.56 mg/dL | 0 | 1 | 5 | 2 | 0 | decreased as compared with the model group | 192.6 ± 60.9 # U · ml^−1 | 220.9 ± 60.9 # U · ml^−1 | 24.59 ± 2.11 ## g · l^−1 | 13.87 ± 9.13 U · ml^−1 | 373 ± 112 μg · g^−1 liver weight | 0.74 ± 0.25 mg/dL | decreased as compared with the model group | – |
| N#C[C@H](O[C@@H]1O[C@H](CO[C@@H]2O[C@H](CO)[C@@H](O)[C@H](O)[C@H]2O)[C@@H](O)[C@H](O)[C@H]1O)c1ccccc1 [Amygdaloside] | 55.39 ± 15.56 U · ml^−1 | 69.13 ± 15.74 U · ml^−1 | 37.01 ± 19.92 U · ml^−1 | 323 ± 79 μg · g^−1 liver weight | 0.95 ± 0.58 mg/dL | 0 | 1 | 4 | 3 | 0 | – | 220.8 ± 47.4 ## U · ml^−1 | 249.1 ± 47.4 U · ml^−1 | 23.67 ± 2.84 g/L | 16.10 ± 6.74 U · ml^−1 | 403 ± 89 # μg · g^−1 liver weight | 0.85 ± 0.23 mg/dL | – | can weaken the DMN-induced liver fibrosis |
